Reference: patent publication US20080255031A1, “METHOD FOR ENHANCING INSULIN SECRETION” (priority 2007, published 2008)
Where “and” joins values, the source holds several entries; their conditions need not be identical. Equal values may be shown once. Read-outs that look alike come from different tables or passages of the source.

What was measured:
normal SD rats = test: Insulin levels during intravenous glucose tolerance test (IVGTT) in normal SD rats; type: in vivo, rat; settings: 15 mg/kg, 30 minutes prior to glucose
Protocol: Each rat was subjected to an IVGTT according to the method of […] et al, Metabolism 42, (1):1-6, 1993. The rats were fasted overnight before administration of the test. One group of eleven rats was given only saline prior to glucose load while the second group of seven rats was given ranolazine prior to glucose load. Glucose was administered at time zero while ranolazine was administered 30 minutes prior to glucose at a dose of 15 mg/kg of body weight. Then, the insulin concentrations in the blood were measured at -30, 0, 2, 4, 7, 15 and 30 minutes. […] The procedure used was that described in Example 2 above.

β1-adrenergic receptors = target: T1, β1-adrenergic receptors (Rattus norvegicus, UniProt P18090); test: Radioligand binding to β1-ARs, membranes from rat ventricle
T1 construct: membranes prepared from rat ventricle and guinea-pig lung, respectively; from tissue; host or cells: rat ventricle membranes
Protocol: (§1) The objective of this example is to present the affinities and potencies of ranolazine and its S- and R-enantiomers for β1 and β2-adrenergic receptors (ARs) in various tissues and cell lines. Using radioligand binding techniques, competition of the compounds for specific radioligand binding to β1- and β2-ARs was determined using membranes prepared from rat ventricle and guinea-pig lung, respectively.

β2-adrenergic receptors = target: T2, β2-adrenergic receptors (Cavia porcellus, UniProt Q8K4Z4); test: Radioligand binding to β2-ARs, membranes from guinea-pig lung
T2 construct: membranes prepared from rat ventricle and guinea-pig lung, respectively; from tissue; host or cells: guinea-pig lung membranes
Protocol: as §1

β1-ARs = target: T3, β1-ARs (Rattus norvegicus, UniProt P18090); test: Isoproterenol-induced cAMP accumulation in rat C6 glioma cells (mostly β1-ARs); type: cell-based; settings: read-out: KB (Schild), β1-ARs
T3 construct: rat C6 glioma cells (expressing mostly β1-ARS); endogenous in cells; host or cells: rat C6 glioma cells
Protocol: (§2) The effect of ranolazine and its S- and R-enantiomers on cAMP accumulations in rat C6 glioma cells (expressing mostly β1-ARS) and DDT1 MF-2 hamster smooth muscles cells (expressing mostly β2-ARs) were determined. […] However, in the presence of the compounds, the concentration-response curve for the isoproterenol-induced increase in cAMP was shifted to the right with no apparent reduction in the maximal responses, indication that these compounds are competitive antagonists of β1- and β2-ARs. Using the Schild equations for multiple concentrations of the antagonist (ranolazine) or for a single concentration of the enantiomers, the KB values for ranolazine and its S- and R-enantiomers were 9.7, 8.0, and >50 μM (for β1-ARS) and 12.2, 9.0, and >50 μM (for β2-ARs). In summary, ranolazine and its S-enantiomer are competitive antagonists of β1 and β2-ARS with the S-enantiomer having the highest binding affinities of all.

β2-ARs = target: T4, β2-ARs (Mesocricetus auratus, UniProt P04274); test: Isoproterenol-induced cAMP accumulation in DDT1 MF-2 hamster smooth muscle cells (mostly β2-ARs); type: cell-based; settings: read-out: KB (Schild), β2-ARs
T4 construct: DDT1 MF-2 hamster smooth muscles cells (expressing mostly β2-ARs); endogenous in cells; host or cells: DDT1 MF-2 hamster smooth muscle cells
Protocol: as §2

IKs = test: Whole cell IKs in isolated canine left ventricular midmyocardial cells; type: cell-based; settings: 30 μM
Protocol: Whole cell currents were recorded from isolated canine left ventricular midmyocrdial cells at 37° C. IKr and IKs were recorded during standard pulse protocols. Action potentials recorded at basic cycle lengths (BCL) of 300 and 2000 ms were used as command waveforms during voltage claim to measure late INa. Enantiomeric effects were determined at concentrations of 3, 10, and 30 μM.
Late INa was evaluated at two voltages during the plateau and final repolarization of an action potential voltage claims.

[1] = test system: Female rabbit isolated hearts; test: LV monophasic action potential duration (MAPD90) in female rabbit isolated hearts; settings: for EC50: Oryctolagus cuniculus
Protocol: The objective of this example is to present the effects of ranolazine and the R- and S-enantiomers of ranolazine on left ventricular monophasic action potential duration (LV MAPD), regional LV dispersion of MAPD (apex-base) and arrhythmogenesis. Female rabbit isolated hearts were perfused with modified K-H solution and paced at a constant rate of 1 Hz after surgical-induced complete atrioventricular block. LV MAPs from the base and apex were measured using contact MAP electrodes.
Each animal was sedated using 6 mg/kg xylazine i.m. and 40 mg/kg ketamine i.m. and then anesthetized by a “cocktail” (ketamine 15 mg/kg+xylazine 4 mg/kg in 1.5 mL saline) i.v. via the marginal ear vein. The thorax was quickly opened. The heart was excised and placed in a modified Krebs-Henseleit (K-H) solution at room temperature. The K-H solution contained (in mmol/L): NaCl 118, KCl 2.8, KH2PO4 1.2, CaCl2 2.5, MgSO4 0.5, pyruvate 2.0, glucose 5.5, Na2EDTA 0.57 and NaHCO3 25. The solution was continuously gassed with 95% O2 and 5% CO2, and its pH was adjusted to 7.4. The aorta was rapidly catheterized and the heart was perfused by the method of Langendorff with K-H solution warmed to 36-36.5° C. at a rate of 20 mL/min with a roller pump (Gilson Minipuls3, Middleton, Wis.). Perfusion pressure was measured (with a Biopac MP 150 pressure transducer, Goleta, Calif.) from a side port of the aortic catheter. To facilitate exit of fluid from the chamber of the left ventricle (LV), the leaflets of the mitral valve were trimmed with fine spring-handled scissors. The right atrial wall was partially removed for AV node ablation to block AV conduction.
Complete AV block was induced by surgical ablation (heated) of AV nodal area. […] A bipolar Teflon-coated electrode was placed on the right ventricular septum to pace the heart. Electrical stimuli 3 msec in width and 3-fold threshold amplitude were delivered to the pacing electrode at a frequency of 1 Hz using a Grass S48 stimulator (W. Warwick, R.I.).
After initiation of ventricular pacing, a 30-40 min delay was allowed for heart rhythm and perfusion pressure to achieve a steady state, an essential experimental condition for recording a good quality monophasic action potential (MAP).
Monophasic action potentials (MAP) and ECG electrodes from Harvard Apparatus Inc. (Holliston, Mass.) were used to record left ventricular MAPs and bipolar ECG. Two MAP electrodes were placed on the epicardial ventricular free wall below the level of atrial-ventricular valves to record basal MAP and apex to record apical MAP signals, respectively. MAP electrodes were pressure-contact Ag—AgCl electrodes attached to a circular holder with springs to maintain the electrodes' contact with the LV epicardial surface. […] Signals were saved on a computer hard disk for subsequent analysis. Bipolar electrocardiogram (ECG) was generated using an isolated-heart ECG apparatus (Harvard Apparatus, Holliston, Mass.) attached to Biopac amplifier system. Coronary perfusion pressure was measured using a pressure transducer (Biopac or PowerLab pressure measuring system). […] All signals were saved on a computer hard disk for subsequent analysis.
Original MAP profiles of 3-5 consecutive beats were superimposed to get one average signal using computer software (Biopac, Goleta, Calif.) and then transferred into Microsoft Excel software and plotted to measure the duration of the MAP at the level at which repolarization is 90% completed (MAPD90).

CYP2D6 = CYP2D6 (Homo sapiens, UniProt P10635); test: biochemical
Protocol: The incubation mixture contained potassium phosphate, pH 7.2 (final concentration=100 mM), magnesium chloride (5 mM), NADPH (1 mM), CYP2D6-specific marker substrate (bufuralol, 25 μM), (R) or (S)-ranolazine (10, 25, 100, 250, 1000 μM), or known CYP2D6 inhibitor (quinidine, 5 μM), and human liver microsomal (HLM) proteins. All reagents except NADPH were combined and preincubated at 37° C. for 2-3 min. Reactions were initiated by addition of NADPH and incubated 20 minutes. The CYP2D6 marker reaction, bufuralol 1-hydroxylation, was monitored. A known CYP2D6 inhibitor, quinidine, was included as a positive control. The negative control samples consisted of all components but not ranolazine. Incubations were run in triplicate for each condition except for positive controls, which were carried out in duplicate.

[2] = paced at 1 Hz, site not stated, read-out: EC50 to prolong LV MAPD90

T4 sequence (P04274 whole entry): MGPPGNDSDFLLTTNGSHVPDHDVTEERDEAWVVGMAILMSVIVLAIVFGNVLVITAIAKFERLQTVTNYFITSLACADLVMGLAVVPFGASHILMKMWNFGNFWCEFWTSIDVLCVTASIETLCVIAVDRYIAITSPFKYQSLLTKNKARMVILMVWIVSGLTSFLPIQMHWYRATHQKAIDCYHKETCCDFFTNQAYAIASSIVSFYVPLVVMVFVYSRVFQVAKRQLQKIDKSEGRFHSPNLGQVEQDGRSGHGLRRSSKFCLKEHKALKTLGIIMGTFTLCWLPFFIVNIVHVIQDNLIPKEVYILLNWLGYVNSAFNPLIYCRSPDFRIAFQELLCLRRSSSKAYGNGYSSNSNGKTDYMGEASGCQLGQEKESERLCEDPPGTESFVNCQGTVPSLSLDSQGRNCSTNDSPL
T1 sequence (P18090 whole entry): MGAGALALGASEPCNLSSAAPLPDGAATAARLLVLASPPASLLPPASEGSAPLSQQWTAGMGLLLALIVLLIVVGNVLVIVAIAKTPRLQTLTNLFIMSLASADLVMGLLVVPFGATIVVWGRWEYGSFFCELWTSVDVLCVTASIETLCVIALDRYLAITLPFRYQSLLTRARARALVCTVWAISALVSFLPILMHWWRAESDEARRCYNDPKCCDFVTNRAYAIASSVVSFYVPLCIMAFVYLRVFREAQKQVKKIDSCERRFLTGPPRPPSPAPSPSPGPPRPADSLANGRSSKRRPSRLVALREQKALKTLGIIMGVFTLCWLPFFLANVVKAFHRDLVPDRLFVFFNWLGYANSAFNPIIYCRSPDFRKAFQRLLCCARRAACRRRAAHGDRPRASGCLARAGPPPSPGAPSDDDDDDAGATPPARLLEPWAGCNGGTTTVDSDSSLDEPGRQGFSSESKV
T3 sequence (P18090 whole entry): as above
T2 sequence (Q8K4Z4 whole entry): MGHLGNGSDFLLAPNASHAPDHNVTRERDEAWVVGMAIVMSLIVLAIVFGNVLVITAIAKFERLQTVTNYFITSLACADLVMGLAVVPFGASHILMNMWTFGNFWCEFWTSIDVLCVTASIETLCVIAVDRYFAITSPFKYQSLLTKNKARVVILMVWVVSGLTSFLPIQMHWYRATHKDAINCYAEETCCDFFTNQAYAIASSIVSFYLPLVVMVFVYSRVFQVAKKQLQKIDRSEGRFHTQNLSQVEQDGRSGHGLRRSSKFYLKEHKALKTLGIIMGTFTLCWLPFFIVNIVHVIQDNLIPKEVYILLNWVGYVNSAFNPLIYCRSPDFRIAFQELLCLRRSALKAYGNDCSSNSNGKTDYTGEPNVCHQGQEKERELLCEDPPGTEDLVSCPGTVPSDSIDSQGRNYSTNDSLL
CYP2D6, sequence (P10635 whole entry): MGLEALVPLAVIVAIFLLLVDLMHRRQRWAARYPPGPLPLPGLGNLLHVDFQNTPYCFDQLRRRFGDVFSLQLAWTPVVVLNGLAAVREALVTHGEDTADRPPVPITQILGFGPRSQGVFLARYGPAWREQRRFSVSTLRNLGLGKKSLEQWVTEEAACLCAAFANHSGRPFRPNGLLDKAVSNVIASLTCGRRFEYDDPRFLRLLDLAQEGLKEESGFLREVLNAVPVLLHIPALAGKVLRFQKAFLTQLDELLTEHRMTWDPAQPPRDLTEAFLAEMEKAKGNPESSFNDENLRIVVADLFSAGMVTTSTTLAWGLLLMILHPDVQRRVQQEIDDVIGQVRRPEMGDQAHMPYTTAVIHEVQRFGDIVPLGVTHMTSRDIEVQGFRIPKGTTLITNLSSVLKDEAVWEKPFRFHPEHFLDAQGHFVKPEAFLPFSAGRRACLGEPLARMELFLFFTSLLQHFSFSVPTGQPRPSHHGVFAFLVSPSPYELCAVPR

| Structure (SMILES) | insulin levels relative to baseline during IVGTT, compared to vehicle treated rats (normal SD rats) | Ki (β1-adrenergic receptors) [µM] | Ki (β2-adrenergic receptors) [µM] | Kb (β1-ARs) [µM] | Kb (β2-ARs) [µM] | IKs reduced (IKs) [%] | EC50 [1, 2] [µM] | maximal increase of MAPD90 ([1]; paced at 1 Hz, site not stated) [%] | IC50 (CYP2D6) [µM] | regional MAPD dispersion and PVBs or VT ([1]; 1-100 μM) | EC50 ([1]; paced at 1 Hz, read-out: EC50 to prolong LV MAPD90 (Apex)) [µM] | EC50 ([1]; paced at 1 Hz, read-out: EC50 to prolong LV MAPD90 (Base)) [µM] | induction of EADs, PVBs or VT ([1]; at any concentration) | maximal increase of apical MAPD90 above control ([1]; paced at 1 Hz, 30-100 μmol/L) | maximal increase of basal MAPD90 above control ([1]; paced at 1 Hz, 30-100 μmol/L) |
| --- | --- | --- | --- | --- | --- | --- | --- | --- | --- | --- | --- | --- | --- | --- | --- |
| COc1ccccc1OC[C@H](O)CN1CCN(CC(=O)Nc2c(C)cccc2C)CC1 [R-ranolazine, (R)-(+)-N-(2,6-dimethylphenyl)-4-[2-hydroxy-3-(2-methoxyphenoxy)-propyl]-1-piperazineacetamide] | higher | > 100 | 39 | > 50 | > 50 | 5 | 6.4 | 22±5 | 430 |  |  |  |  |  |  |
| COc1ccccc1OCC(O)CN1CCN(CC(=O)Nc2c(C)cccc2C)CC1 (racemic) [ranolazine, (±)-N-(2,6-dimethylphenyl)-4-[2-hydroxy-3-(2-methoxyphenoxy)propyl]-1-piperazine-acetamide] | higher | 8.6 | 14.8 | 9.7 | 12.2 |  |  |  |  | without increasing regional MAPD dispersion or eliciting premature ventricular beats (PVBs) or ventricular tachycardia (VT) | 4.8 | 4.3 | did not induce any EADs, PVBs or VT | 35±4% and 35.2±4.1% | 32±4% and 32.2±4.2% |
| COc1ccccc1OC[C@@H](O)CN1CCN(CC(=O)Nc2c(C)cccc2C)CC1 [S-ranolazine, (S)-(−)-N-(2,6-dimethylphenyl)-4-[2-hydroxy-3-(2-methoxyphenoxy)-propyl]-1-piperazineacetamide] | not different from the vehicle treated rats | 4.8 | 6.7 | 8 | 9 | 27 | 5.9 | 28±4 | 130 |  |  |  |  |  |  |
